Data from ChEMBL document CHEMBL5137068, “Discovery of Hexahydrofuro[3,2-b]furans as New Kinase-Selective and Orally Bioavailable JAK3 Inhibitors for the Treatment of Leukemia Harboring a JAK3 Activating Mutant” (J Med Chem, 2022).

Key:
[1] = molecular target: T1, Signal transducer and activator of transcription 5A (Homo sapiens) (UniProt P42229); experiment: Inhibition of STAT5 activation in human U-937 cells assessed as decrease in P-STAT5 incubated for 0 to 24 hrs by Western blot analysis; format: cell-based; details: time 0-24 hrs, DDE = dose-dependent effect
T1 sequence (whole entry): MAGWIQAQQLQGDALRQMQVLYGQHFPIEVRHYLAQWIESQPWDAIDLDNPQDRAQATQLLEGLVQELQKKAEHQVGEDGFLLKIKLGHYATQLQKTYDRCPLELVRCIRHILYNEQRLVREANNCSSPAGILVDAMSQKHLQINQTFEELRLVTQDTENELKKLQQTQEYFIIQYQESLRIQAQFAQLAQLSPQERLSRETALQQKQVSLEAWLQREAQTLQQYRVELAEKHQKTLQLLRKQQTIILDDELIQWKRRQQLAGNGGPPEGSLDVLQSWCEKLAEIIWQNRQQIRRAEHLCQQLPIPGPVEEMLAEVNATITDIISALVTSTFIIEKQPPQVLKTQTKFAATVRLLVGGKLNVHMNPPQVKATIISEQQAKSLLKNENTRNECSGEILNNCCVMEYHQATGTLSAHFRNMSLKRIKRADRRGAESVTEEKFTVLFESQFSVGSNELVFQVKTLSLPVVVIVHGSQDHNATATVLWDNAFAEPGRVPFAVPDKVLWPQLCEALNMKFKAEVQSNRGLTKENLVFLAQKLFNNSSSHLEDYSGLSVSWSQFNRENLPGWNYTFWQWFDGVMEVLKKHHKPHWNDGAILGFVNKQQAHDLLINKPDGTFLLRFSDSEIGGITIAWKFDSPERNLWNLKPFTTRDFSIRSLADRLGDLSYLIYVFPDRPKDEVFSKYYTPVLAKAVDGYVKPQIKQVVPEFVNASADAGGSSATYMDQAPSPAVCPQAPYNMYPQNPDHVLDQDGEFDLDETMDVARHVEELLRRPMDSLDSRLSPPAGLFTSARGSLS

[2] = molecular target: T2, Tyrosine-protein kinase JAK3 (Homo sapiens) (UniProt P52333); experiment: Inhibition of human JAK3 at 0.5 uM assessed as competition rate relative to control
T2 sequence (whole entry): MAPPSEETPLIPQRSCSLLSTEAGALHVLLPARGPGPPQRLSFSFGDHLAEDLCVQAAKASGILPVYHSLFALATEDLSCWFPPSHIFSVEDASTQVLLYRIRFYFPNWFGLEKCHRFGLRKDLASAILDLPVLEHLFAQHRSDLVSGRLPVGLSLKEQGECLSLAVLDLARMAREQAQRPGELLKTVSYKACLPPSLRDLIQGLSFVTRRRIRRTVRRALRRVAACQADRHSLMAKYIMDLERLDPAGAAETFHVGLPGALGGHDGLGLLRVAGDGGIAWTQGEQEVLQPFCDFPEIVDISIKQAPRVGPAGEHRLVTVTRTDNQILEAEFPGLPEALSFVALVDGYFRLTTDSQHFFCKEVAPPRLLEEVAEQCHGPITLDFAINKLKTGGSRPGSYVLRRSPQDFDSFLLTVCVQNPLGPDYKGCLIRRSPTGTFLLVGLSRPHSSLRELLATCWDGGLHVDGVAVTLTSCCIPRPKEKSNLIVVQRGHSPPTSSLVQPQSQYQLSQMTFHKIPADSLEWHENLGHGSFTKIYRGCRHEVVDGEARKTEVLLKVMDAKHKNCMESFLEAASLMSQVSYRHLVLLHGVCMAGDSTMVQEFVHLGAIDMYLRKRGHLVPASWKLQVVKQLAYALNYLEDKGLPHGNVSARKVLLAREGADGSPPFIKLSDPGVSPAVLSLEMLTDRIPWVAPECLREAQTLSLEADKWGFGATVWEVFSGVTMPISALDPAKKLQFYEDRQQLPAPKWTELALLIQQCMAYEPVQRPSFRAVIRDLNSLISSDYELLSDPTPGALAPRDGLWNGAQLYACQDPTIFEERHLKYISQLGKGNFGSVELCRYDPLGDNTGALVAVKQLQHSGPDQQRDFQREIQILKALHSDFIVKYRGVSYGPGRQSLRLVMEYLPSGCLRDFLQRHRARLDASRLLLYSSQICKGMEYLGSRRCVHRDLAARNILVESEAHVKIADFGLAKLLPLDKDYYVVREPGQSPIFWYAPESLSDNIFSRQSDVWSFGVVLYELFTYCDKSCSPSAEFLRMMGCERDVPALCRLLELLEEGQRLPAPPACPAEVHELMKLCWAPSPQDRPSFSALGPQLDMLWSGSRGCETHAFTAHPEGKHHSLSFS

[3] = tested on: U-937; experiment: Induction of cell cycle arrest in human U-937 cells assessed as accumulation at S phase at 11 nM measured after 24 hrs by propidium iodide staining based flow cytometric analysis (reference value: 15.35%); format: functional
[4] = molecular target: Tyrosine-protein kinase ITK/TSK (Homo sapiens) (UniProt Q08881); experiment: Inhibition of ITK (unknown origin) at 0.5 uM relative to control
[5] = tested on: BaF3; experiment: cells; details: Mus musculus, BaF3, 72 h
[6] = Cmax in 12 hr fasted SPF Sprague-Dawley rat at 5 mg/kg, iv upon 2 hrs fasting post-administration measured upto 24 hrs; format: ADME, organism-based; parameters: dose 5 mg/kg, time < 24 hrs, route iv; details: in vivo
[7] = molecular target: [Pyruvate dehydrogenase (acetyl-transferring)] kinase isozyme 1, mitochondrial (Homo sapiens) (UniProt Q15118); experiment: Inhibition of PDK1 (unknown origin) at 0.5 uM assessed as competition rate relative to control
[8] = molecular target: Tyrosine-protein kinase BTK (Homo sapiens) (UniProt Q06187); experiment: Inhibition of BTK (unknown origin) at 0.5 uM relative to control
[9] = molecular target: T2, Tyrosine-protein kinase JAK3 (Homo sapiens); experiment: Inhibition of JAK3 activation in human U-937 cells assessed as decrease in P-STAT5 at 100 uM by Western blot analysis; format: cell-based; details: time 0-24 hrs, TDE = time-dependent effect
[10] = molecular target: NUAK family SNF1-like kinase 1 (Homo sapiens) (UniProt O60285); experiment: Inhibition of human ARK5 at 0.5 uM relative to control
[11] = tested on: U-937; experiment: Induction of cell cycle arrest in human U-937 cells assessed as accumulation at G0/G1 phase at 11 nM measured after 24 hrs by propidium iodide staining based flow cytometric analysis (reference value: 62.95%); format: functional
[12] = tested on: U-937; experiment: Induction of cell cycle arrest in human U-937 cells assessed as accumulation at G2/M phase at 11 nM measured after 24 hrs by propidium iodide staining based flow cytometric analysis (reference value: 21.41%); format: functional
[13] = molecular target: Cytoplasmic tyrosine-protein kinase BMX (Homo sapiens) (UniProt P51813); experiment: Inhibition of BMX (unknown origin) at 0.5 uM relative to control
[14] = AUC(0 to infinity) in 12 hr fasted SPF Sprague-Dawley rat at 15 mg/kg, po upon 2 hrs fasting post-administration upto 24 hrs; format: ADME, organism-based; parameters: dose 15 mg/kg, time < 24 hrs, route po; details: in vivo
[15] = molecular target: Tyrosine-protein kinase JAK2 (Homo sapiens, UniProt O60674); experiment: Inhibition of human JAK2 at 0.5 uM relative to control
Tyrosine-protein kinase JAK2, sequence (O60674 whole entry): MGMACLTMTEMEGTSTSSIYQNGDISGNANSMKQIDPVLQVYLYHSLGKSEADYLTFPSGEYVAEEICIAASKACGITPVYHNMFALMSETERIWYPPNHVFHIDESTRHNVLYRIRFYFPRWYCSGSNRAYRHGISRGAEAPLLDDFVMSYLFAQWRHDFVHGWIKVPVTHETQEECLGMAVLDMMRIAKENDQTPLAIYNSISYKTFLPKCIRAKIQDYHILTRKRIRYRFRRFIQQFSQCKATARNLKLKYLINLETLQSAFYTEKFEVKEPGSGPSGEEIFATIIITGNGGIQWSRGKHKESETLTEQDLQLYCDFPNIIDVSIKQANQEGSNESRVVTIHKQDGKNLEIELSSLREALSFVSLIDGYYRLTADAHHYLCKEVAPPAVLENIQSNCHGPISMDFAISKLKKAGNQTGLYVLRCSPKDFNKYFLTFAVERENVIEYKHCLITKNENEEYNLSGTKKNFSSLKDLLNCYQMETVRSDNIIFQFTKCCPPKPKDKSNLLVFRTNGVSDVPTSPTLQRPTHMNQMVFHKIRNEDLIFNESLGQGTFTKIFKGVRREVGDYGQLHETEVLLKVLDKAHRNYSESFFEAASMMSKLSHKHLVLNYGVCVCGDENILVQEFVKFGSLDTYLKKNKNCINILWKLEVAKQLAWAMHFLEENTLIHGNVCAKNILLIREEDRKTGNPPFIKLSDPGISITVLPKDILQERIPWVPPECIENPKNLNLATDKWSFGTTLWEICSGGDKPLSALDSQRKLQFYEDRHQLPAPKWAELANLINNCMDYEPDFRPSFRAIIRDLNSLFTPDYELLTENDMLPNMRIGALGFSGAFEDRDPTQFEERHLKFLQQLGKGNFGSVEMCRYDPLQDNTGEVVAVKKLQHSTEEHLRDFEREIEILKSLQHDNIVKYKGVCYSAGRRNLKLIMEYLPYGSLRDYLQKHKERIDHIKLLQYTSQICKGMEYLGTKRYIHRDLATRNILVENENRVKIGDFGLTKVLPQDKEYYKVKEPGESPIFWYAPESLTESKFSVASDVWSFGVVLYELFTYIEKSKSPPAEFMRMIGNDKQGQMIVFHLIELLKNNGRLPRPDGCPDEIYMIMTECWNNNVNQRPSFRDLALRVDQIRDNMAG

Tyrosine-protein kinase ITK/TSK (Homo sapiens), sequence (Q08881 whole entry): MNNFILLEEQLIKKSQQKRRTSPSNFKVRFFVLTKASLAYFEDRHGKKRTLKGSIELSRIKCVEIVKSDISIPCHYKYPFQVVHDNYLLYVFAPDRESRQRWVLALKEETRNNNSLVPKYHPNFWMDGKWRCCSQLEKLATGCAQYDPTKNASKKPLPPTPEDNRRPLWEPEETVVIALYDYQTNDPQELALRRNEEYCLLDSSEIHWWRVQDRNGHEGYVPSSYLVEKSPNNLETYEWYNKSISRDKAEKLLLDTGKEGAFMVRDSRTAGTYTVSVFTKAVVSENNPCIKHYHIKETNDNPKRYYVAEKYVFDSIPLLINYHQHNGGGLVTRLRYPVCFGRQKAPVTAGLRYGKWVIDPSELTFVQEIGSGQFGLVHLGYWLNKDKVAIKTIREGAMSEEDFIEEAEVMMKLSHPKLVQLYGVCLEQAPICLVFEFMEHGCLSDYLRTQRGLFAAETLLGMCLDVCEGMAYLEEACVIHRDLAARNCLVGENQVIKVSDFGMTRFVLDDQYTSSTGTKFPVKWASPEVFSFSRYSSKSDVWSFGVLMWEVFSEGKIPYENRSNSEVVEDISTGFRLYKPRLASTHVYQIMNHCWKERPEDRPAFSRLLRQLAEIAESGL
Cytoplasmic tyrosine-protein kinase BMX (Homo sapiens), sequence (P51813 whole entry): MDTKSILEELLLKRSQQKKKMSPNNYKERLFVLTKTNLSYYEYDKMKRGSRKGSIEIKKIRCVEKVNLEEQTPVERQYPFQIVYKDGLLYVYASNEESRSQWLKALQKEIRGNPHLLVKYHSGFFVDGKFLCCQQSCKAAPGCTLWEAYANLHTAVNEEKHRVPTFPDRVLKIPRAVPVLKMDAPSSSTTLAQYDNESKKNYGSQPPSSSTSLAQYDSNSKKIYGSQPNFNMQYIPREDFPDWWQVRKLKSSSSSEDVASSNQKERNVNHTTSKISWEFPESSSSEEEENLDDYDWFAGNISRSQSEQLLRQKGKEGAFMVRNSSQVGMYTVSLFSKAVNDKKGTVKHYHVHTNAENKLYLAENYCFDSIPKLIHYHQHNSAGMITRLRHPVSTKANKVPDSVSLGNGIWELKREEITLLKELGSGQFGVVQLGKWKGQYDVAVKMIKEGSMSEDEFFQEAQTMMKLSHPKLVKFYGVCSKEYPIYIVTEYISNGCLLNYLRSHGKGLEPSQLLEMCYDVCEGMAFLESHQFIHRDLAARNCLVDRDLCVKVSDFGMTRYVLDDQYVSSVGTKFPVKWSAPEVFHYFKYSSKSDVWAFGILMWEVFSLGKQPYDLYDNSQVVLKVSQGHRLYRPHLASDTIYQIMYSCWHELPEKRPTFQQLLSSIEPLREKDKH
Tyrosine-protein kinase BTK (Homo sapiens), sequence (Q06187 whole entry): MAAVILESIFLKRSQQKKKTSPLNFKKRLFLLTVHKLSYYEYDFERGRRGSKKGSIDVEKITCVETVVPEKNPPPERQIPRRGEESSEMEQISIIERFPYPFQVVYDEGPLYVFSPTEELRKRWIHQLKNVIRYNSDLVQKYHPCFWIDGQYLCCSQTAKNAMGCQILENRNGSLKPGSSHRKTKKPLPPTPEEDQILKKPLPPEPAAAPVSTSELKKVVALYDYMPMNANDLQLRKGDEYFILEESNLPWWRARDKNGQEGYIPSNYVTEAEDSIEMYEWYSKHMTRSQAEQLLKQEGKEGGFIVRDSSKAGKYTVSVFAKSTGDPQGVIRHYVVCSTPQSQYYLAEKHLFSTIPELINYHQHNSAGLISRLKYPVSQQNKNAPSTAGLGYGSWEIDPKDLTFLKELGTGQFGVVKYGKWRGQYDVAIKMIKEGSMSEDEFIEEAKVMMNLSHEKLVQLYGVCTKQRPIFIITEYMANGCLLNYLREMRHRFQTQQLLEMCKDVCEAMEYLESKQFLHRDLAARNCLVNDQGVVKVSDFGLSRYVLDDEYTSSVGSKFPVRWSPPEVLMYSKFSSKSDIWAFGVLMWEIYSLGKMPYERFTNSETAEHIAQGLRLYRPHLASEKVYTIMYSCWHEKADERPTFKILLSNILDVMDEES
NUAK family SNF1-like kinase 1 (Homo sapiens), sequence (O60285 whole entry): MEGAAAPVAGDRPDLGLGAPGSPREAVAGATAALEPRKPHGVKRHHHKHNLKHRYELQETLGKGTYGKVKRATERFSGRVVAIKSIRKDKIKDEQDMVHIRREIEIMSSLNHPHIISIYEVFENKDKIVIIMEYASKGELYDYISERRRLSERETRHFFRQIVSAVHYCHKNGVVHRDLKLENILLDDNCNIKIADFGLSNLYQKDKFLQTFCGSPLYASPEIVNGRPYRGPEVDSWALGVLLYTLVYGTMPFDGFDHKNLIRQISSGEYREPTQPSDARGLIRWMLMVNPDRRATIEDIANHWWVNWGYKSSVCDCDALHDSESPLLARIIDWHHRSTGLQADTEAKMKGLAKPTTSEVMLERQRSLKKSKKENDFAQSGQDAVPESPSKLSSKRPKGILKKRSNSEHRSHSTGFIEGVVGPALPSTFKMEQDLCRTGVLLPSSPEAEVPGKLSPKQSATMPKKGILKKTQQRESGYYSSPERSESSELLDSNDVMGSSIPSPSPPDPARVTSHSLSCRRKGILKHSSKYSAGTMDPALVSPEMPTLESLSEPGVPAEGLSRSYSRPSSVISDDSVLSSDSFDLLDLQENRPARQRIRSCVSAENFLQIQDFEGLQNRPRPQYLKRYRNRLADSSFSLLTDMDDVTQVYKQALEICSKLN

C=CC(=O)Nc1cc(Nc2ncc(Cl)c(O[C@@H]3CO[C@H]4[C@@H]3OC[C@H]4OC)n2)ccc1N(C)CCN(C)C
inhibition [1]: Dde | inhibition [2]: 90% | Activity [3]: 15.18% | inhibition [4]: 92% | IC50 [5]: 178 nM | Cmax [6]: 911 ng/mL | inhibition [7]: 40% | inhibition [8]: 114% | inhibition [9]: Tde | inhibition [10]: 11% | Activity [11]: 62.58% | Activity [12]: 21.98% | inhibition [13]: 71% | AUC(0-inf) [14]: 334 ng·h/mL | inhibition [15]: 98%
